Test results reported in ChEMBL document CHEMBL1201862, “PubChem BioAssay data set” (2004).
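Briefly, cells in 96-well plates were exposed to five compound concentrations for 48 h, and endpoints were estimated by linear interpolation. At the GI50, growth is halved.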 The source made the active and inactive calls. Cut-off read from the data, not from the text of the source: active = GI50 up to about 1.1 µM and inactive = higher.

Assays:
Experiment in all cases: inhibition of tumour cell growth, NCI panel, 48 h
U-251 = tested on: U-251
HCT-15 = tested on: HCT-15
NCI-H226 = tested on: NCI-H226
K562 = tested on: K562
UACC-62 = tested on: UACC-62
TK-10 = tested on: TK-10
NCI-H522 = tested on: NCI-H522
UO-31 = tested on: UO-31
CAKI-1 = tested on: CAKI-1
NCI-H460 = tested on: NCI-H460
SN12C = tested on: SN12C
SK-OV-3 = tested on: SK-OV-3
SF-539 = tested on: SF-539
SK-MEL-5 = tested on: SK-MEL-5
SNB-75 = tested on: SNB-75
OVCAR-4 = tested on: OVCAR-4
OVCAR-3 = tested on: OVCAR-3
HOP-92 = tested on: HOP-92

Row | Structure (SMILES) | GI50 (U-251) | GI50 (HCT-15) | GI50 (NCI-H226) | GI50 (K562) | GI50 (UACC-62) | GI50 (TK-10) | GI50 (NCI-H522) | GI50 (UO-31) | GI50 (CAKI-1) | GI50 (NCI-H460) | GI50 (SN12C) | GI50 (SK-OV-3) | GI50 (SF-539) | GI50 (SK-MEL-5) | GI50 (SNB-75) | GI50 (OVCAR-4) | GI50 (OVCAR-3) | GI50 (HOP-92)
1 | Cc1nc2c(n1-c1ccccc1)C(=O)c1ccccc1C2=O | 34 µM (inactive) | 20.6 µM | 58.1 µM (inactive) | 32.2 µM (inactive) | 23.4 µM (inactive) | > 100 µM (inactive) | 25.2 µM (inactive) | 73.3 µM (inactive) | 70.8 µM (inactive) | 39.3 µM (inactive) | 38.2 µM (inactive) | > 100 µM (inactive) | 41.7 µM (inactive) | 25.8 µM (inactive) | > 100 µM (inactive) | 28.2 µM (inactive) | 20.7 µM (inactive) | 
2 | COc1cc(C2C(Cl)C(=O)N2NC(=O)c2ccc(NC(C)=O)cc2)cc(Br)c1O (centres undefined) | > 100 µM (inactive) |  | > 100 µM (inactive) | > 100 µM (inactive) | > 100 µM (inactive) | > 100 µM (inactive) | > 100 µM (inactive) | > 100 µM (inactive) |  | > 100 µM (inactive) |  | > 100 µM (inactive) | > 100 µM (inactive) | > 100 µM (inactive) | > 100 µM (inactive) |  | > 100 µM (inactive) | > 100 µM (inactive)
3 | NS(=O)(=O)c1ccc(NC(=O)C2C(=O)C(=O)N(c3ccc(S(N)(=O)=O)cc3)C2=O)cc1 (centres undefined) | > 100 µM (inactive) | > 100 µM | > 100 µM (inactive) | > 100 µM (inactive) | > 100 µM (inactive) | > 100 µM (inactive) | > 100 µM (inactive) | > 100 µM (inactive) | > 100 µM (inactive) |  | > 100 µM (inactive) | > 100 µM (inactive) | > 100 µM (inactive) | > 100 µM (inactive) | > 100 µM (inactive) | > 100 µM (inactive) | > 100 µM (inactive) | > 100 µM (inactive)
4 | CCOC(=O)C12CCC(=O)C=C1[C@@H](C)C(=O)CC2 (some centres undefined) | > 100 µM (inactive) | > 100 µM | > 100 µM (inactive) |  | > 100 µM (inactive) | > 100 µM (inactive) |  | > 100 µM (inactive) |  | > 100 µM (inactive) | > 100 µM (inactive) | > 100 µM (inactive) |  | > 100 µM (inactive) | > 100 µM (inactive) |  | > 100 µM (inactive) | 93.3 µM (inactive)
5 | CCCCCCCCOCC(O)COC(=O)CCCCCCC (centres undefined) | > 100 µM (inactive) | > 100 µM | > 100 µM (inactive) | 31.2 µM (inactive) | 50.8 µM (inactive) | > 100 µM (inactive) |  | > 100 µM (inactive) | > 100 µM (inactive) | > 100 µM (inactive) | > 100 µM (inactive) | > 100 µM (inactive) |  | > 100 µM (inactive) |  | 34.4 µM (inactive) | 18.3 µM (inactive) | 25.2 µM (inactive)
6 | CCOc1ccccc1NC(=O)CCc1nnc(S)[nH]1 | > 100 µM (inactive) | > 100 µM | > 100 µM (inactive) | > 100 µM (inactive) | > 100 µM (inactive) | > 100 µM (inactive) | > 100 µM (inactive) | > 100 µM (inactive) | > 100 µM (inactive) | > 100 µM (inactive) | > 100 µM (inactive) | > 100 µM (inactive) | > 100 µM (inactive) | > 100 µM (inactive) |  | > 100 µM (inactive) | > 100 µM (inactive) | > 100 µM (inactive)
7 | O=C(Nc1cccc(O)c1)C(=O)C1C(=O)NC(=S)NC1=O | > 100 µM (inactive) | > 100 µM | > 100 µM (inactive) | > 100 µM (inactive) | > 100 µM (inactive) |  | > 100 µM (inactive) | > 100 µM (inactive) | > 100 µM (inactive) |  | > 100 µM (inactive) | > 100 µM (inactive) | > 100 µM (inactive) | > 100 µM (inactive) | > 100 µM (inactive) | > 100 µM (inactive) | > 100 µM (inactive) | > 100 µM (inactive)
8 | CCOC(=O)[N-]c1ccc(S(=O)(=O)[O+](C)CCl)cc1.CCOC(=O)[N-]c1ccc(S(=O)(=O)[O+](C)CCl)cc1.NC(=O)N=O.NC(=O)OCCCl | > 100 µM (inactive) | > 100 µM |  | > 100 µM (inactive) | > 100 µM (inactive) | > 100 µM (inactive) |  | > 100 µM (inactive) | > 100 µM (inactive) | > 100 µM (inactive) | > 100 µM (inactive) | > 100 µM (inactive) | > 100 µM (inactive) |  |  |  |  | > 100 µM (inactive)
9 | COC(=O)C(CC(=O)c1cc2c(cc1I)OCO2)Cc1cc(OC)c(OC)c(OC)c1I (centres undefined) | 65.6 µM (inactive) | > 100 µM | > 100 µM (inactive) | > 100 µM (inactive) | 37.2 µM (inactive) | > 100 µM (inactive) | 9.06 µM (inactive) |  | 25 µM (inactive) | > 100 µM (inactive) | > 100 µM (inactive) | > 100 µM (inactive) | > 100 µM (inactive) | 13.6 µM (inactive) |  |  | 7.21 µM (inactive) | 14.3 µM (inactive)
10 | O=c1c2cc([N+](=O)[O-])ccc2sc2ccsc12 | > 100 µM (inactive) | > 100 µM | > 100 µM (inactive) | > 100 µM (inactive) | > 100 µM (inactive) |  | > 100 µM (inactive) | > 100 µM (inactive) |  | > 100 µM (inactive) | > 100 µM (inactive) | > 100 µM (inactive) | > 100 µM (inactive) | > 100 µM (inactive) | > 100 µM (inactive) | > 100 µM (inactive) | > 100 µM (inactive) | > 100 µM (inactive)
11 | O=C(CC1(O)C(=O)Nc2ccccc21)c1ccc2ccccc2c1 (centres undefined) |  | > 100 µM | 29.2 µM (inactive) | > 100 µM (inactive) | > 100 µM (inactive) | > 100 µM (inactive) | 99.5 µM (inactive) | 44.7 µM (inactive) | > 100 µM (inactive) | > 100 µM (inactive) | > 100 µM (inactive) | > 100 µM (inactive) | > 100 µM (inactive) | > 100 µM (inactive) | 78 µM (inactive) | > 100 µM (inactive) | > 100 µM (inactive) | > 100 µM (inactive)
12 | NCc1ccccc1C1CSCSC1 | > 100 µM (inactive) | > 100 µM | > 100 µM (inactive) | > 100 µM (inactive) | > 100 µM (inactive) | > 100 µM (inactive) | > 100 µM (inactive) | > 100 µM (inactive) |  | > 100 µM (inactive) | > 100 µM (inactive) | > 100 µM (inactive) | > 100 µM (inactive) | > 100 µM (inactive) | > 100 µM (inactive) | > 100 µM (inactive) | > 100 µM (inactive) | 
13 | O=C1Sc2ccccc2C(=O)N2CCSC12 (centres undefined) | > 100 µM (inactive) | > 100 µM |  | > 100 µM (inactive) | > 100 µM (inactive) | > 100 µM (inactive) |  | > 100 µM (inactive) |  | > 100 µM (inactive) | > 100 µM (inactive) | > 100 µM (inactive) |  | > 100 µM (inactive) |  |  | > 100 µM (inactive) | > 100 µM (inactive)
14 | O=C1c2ccccc2C2(O)NC(=S)N(c3ccccc3)C12O (centres undefined) | > 100 µM (inactive) | > 100 µM |  | > 100 µM (inactive) | > 100 µM (inactive) | > 100 µM (inactive) | > 100 µM (inactive) | > 100 µM (inactive) | > 100 µM (inactive) | > 100 µM (inactive) |  | > 100 µM (inactive) | > 100 µM (inactive) |  | > 100 µM (inactive) | > 100 µM (inactive) | > 100 µM (inactive) | > 100 µM (inactive)
15 | CC(=O)c1ccc(NC(=O)/C(=N\NC(N)=O)C(C#N)CC(C)(C)C=O)cc1 (centres undefined) | > 100 µM (inactive) | > 100 µM | > 100 µM (inactive) | > 100 µM (inactive) | > 100 µM (inactive) | > 100 µM (inactive) | > 100 µM (inactive) | > 100 µM (inactive) | > 100 µM (inactive) | > 100 µM (inactive) | > 100 µM (inactive) | > 100 µM (inactive) | > 100 µM (inactive) | > 100 µM (inactive) | > 100 µM (inactive) | > 100 µM (inactive) |  | > 100 µM (inactive)
16 | Cc1cccc(C)c1NC(=O)CCc1nnc(S)[nH]1 | > 100 µM (inactive) | > 100 µM | > 100 µM (inactive) | > 100 µM (inactive) | > 100 µM (inactive) | > 100 µM (inactive) | > 100 µM (inactive) | > 100 µM (inactive) | > 100 µM (inactive) | > 100 µM (inactive) | > 100 µM (inactive) | > 100 µM (inactive) | > 100 µM (inactive) |  | > 100 µM (inactive) | > 100 µM (inactive) |  | > 100 µM (inactive)
17 | COC(=O)CC(=O)OSc1ccccc1 | 3.48 µM (inactive) |  | 24.6 µM (inactive) | 35.2 µM (inactive) | 14.9 µM (inactive) | 43 µM (inactive) | 1.61 µM (inactive) | 12.2 µM (inactive) |  | 38.5 µM (inactive) | 12.9 µM (inactive) | 21.1 µM (inactive) | 12.3 µM (inactive) | 22.3 µM (inactive) |  | 28.6 µM (inactive) | 14.6 µM (inactive) | 17.7 µM (inactive)
18 | Cc1nc(O)nc2c1C(NCCCN(C)C)c1cc(Cl)ccc1N2 (centres undefined) | 15.9 µM (inactive) |  | 16.6 µM (inactive) | 8.61 µM (inactive) | 13.4 µM (inactive) | 16.8 µM (inactive) | 15.2 µM (inactive) | 13.6 µM (inactive) |  | 14.7 µM (inactive) | 14.8 µM (inactive) | 16.9 µM (inactive) | 13.5 µM (inactive) |  | 12.8 µM (inactive) |  | 17.4 µM (inactive) | 10.9 µM (inactive)
